≈ marks a conversion by molar mass, not a printed value. Numbered stars: 1 amine (or outer) side, 2 acyl side, 3 side chain; on linkers, the order of the positions; unused ones are H or OH. Bridge positions count the residues as written; N and C are the ends. Square brackets hold non-standard residues; d marks the D form. Peptide text beside a SMILES is read from it. * marks the point of attachment. Piperazine(2S-CO,4-Me) = CN1CCN[C@H](C(=O)O)C1; Phe(3-Me) = Cc1cccc(C[C@H](N)C(=O)O)c1; NH(4-Cl-2-F-phenyl) = Fc1cc(Cl)ccc1N*; Pro(4R-Me) = C[C@H]1CN[C@H](C(=O)O)C1; aThr = C[C@H](O)[C@H](N)C(=O)O; CO = O=C([*:1])[*:2]
Tests used:
[1] = Cytotoxicity assay (CellTiter-Glo cell viability); type: cell-based; conditions: African green monkey
Experimental: Cytotoxicity was determined by determining the effect of compounds on cell viability. Vero (kidney epithelial cells; ATCC CCL-81) monolayers were trypsinized and 5000 cells/well were seeded (10-15% confluency) into white-wall, flat bottom 96 well microwell plates (Corning) using enriched Dulbecco's Modified Eagle's Medium (Hyclone: DMEM/High Glucose) containing 10% Fetal Bovine Serum (ATCC-30-2020). Plates were incubated overnight at 37° C. in the presence of 5% CO2. Drug-free media was then replaced with media containing serial dilutions of test compound or DMSO carrier. After an additional 72 hours of incubation, viability was indirectly measured using the CellTiter-Glo® Luminescent Cell Viability (Promega) assay. Assay plates were read at peak emission wavelength of 560 nm using a EnVision® Multilabel Plate Reader (Perkin Elmer) or PHERAstar FS Multilabel reader (BMG, Cary, N.C.). The concentration of test compounds that inhibited growth by 50% (IC50 value) was computed using nonlinear regression based fitting of inhibition curves using log [inhibitor] vs. response-variable slope (four parameters)—symmetrical equation, in GraphPad Prism version 6 [GraphPad Software, La Jolla, Calif. USA, www.graphpad.com]. For each experiment, compounds were tested in duplicate. IC50 values presented are the range of two biologically independent experiments.

[2] = test system: S. aureus ΔClpP; assay: Minimal inhibitory concentration, microbroth dilution; type: cell-based, Staphylococcus aureus; conditions: MIC; ClpP inactivated
Summary of the method: (§1)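 MICs were determined by CLSI broth microdilution, using two-fold compound dilutions from a final 200 μM and about 10^5 cfu/mL inoculum. Plates were incubated aerobically at 37 °C overnight. The MIC was read visually as the lowest concentration preventing growth.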

[3] = test system: B. subtilis; assay: as above; type: cell-based; conditions: Bacillus subtilis; MIC; read-out: Minimal Inhibitory Concentrations (μM) B. subtilis
Summary of the method: as §1

[4] = test system: E. faecails; assay: as above; type: cell-based; conditions: Enterococcus faecalis; MIC; read-out: Minimal Inhibitory Concentrations (μM) E. faecails
Summary of the method: as §1

[5] = test system: MRSA NRS70; assay: as above; type: cell-based; conditions: Staphylococcus aureus; MIC; read-out: Minimal Inhibitory Concentrations (μM) MRSA NRS70
Summary of the method: as §1

[6] = test system: S. aureus ATCC 29213; assay: as above; type: cell-based; conditions: Staphylococcus aureus, ATCC29213; MIC; read-out: Minimal Inhibitory Concentrations (μM) S. aureus ATCC 29213
Summary of the method: as §1

[7] = test system: S. aureus USA 300; assay: as above; type: cell-based; conditions: Staphylococcus aureus, USA300; MIC; read-out: Minimal Inhibitory Concentrations (μM) S. aureus USA 300
Summary of the method: as §1

[8] = test system: S. pneumoniae; assay: as above; type: cell-based; conditions: Streptococcus pneumoniae; MIC; read-out: Minimal Inhibitory Concentrations (μM) S. pneumoniae
Summary of the method: as §1

[9] = test system: S. pyogenes; assay: as above; type: cell-based; conditions: Streptococcus pyogenes; MIC; read-out: Minimal Inhibitory Concentrations (μM) S. pyogenes
Summary of the method: as §1

[10] = Plasma protein binding, rapid equilibrium dialysis; type: in vitro ADME, human; conditions: human, 4 h, 10 μM, pH 7.4
Summary of the method: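 Compound spiked at 10 μM (0.1% DMSO) into human plasma, dialysed against DPBS pH 7.4 across 8 K MWCO RED membrane for 4 h at 37 °C with shaking. Both chambers quantified by LC-MS against warfarin internal standard; % free = buffer/plasma concentration ×100, % bound = 100 − % free.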

[11] = Plasma protein binding, rapid equilibrium dialysis; type: in vitro ADME, mouse; conditions: mouse, 4 h, 10 μM, pH 7.4
[12] = Plasma pharmacokinetics; type: in vivo, male BALB/c mice; conditions: male, BALB/c, mouse, in vivo, iv

SMILES: Cc1cccc(C[C@H](NC(=O)Nc2ccc(Cl)cc2F)C(=O)N[C@@H]2C(=O)N3CCC[C@H]3C(=O)N3CCN(C)C[C@H]3C(=O)N[C@@H](C)C(=O)N3C[C@H](C)C[C@H]3C(=O)O[C@H]2C)c1 [Compound 11, (S)-2-(3-(4-CHLORO-2-FLUOROPHENYL)UREIDO)-N-((6AS,12S,13S,15AS,17R,21S,23AS)-2,13,17,21-TETRAMETHYL-6,11,15,20,23-PENTAOXOOCTADECAHYDRO-2H,6H,11H,15H-PYRAZINO[2,1-I]DIPYRROLO[2,1-C:2′,1′-L][1]OXA[4,7,10,13]TETRAAZACYCLOHEXADECIN-12-YL)-3-(M-TOLYL)PROPANAMIDE] ({NH(4-Cl-2-F-phenyl)-CO}-[Phe(3-Me)][aThr]P[Piperazine(2S-CO,4-Me)]A[Pro(4R-Me)]; ester 2-C)
- IC50 at 72 h [1]: > 10 µM
- Minimal Inhibitory Concentrations (μM) S. aureus ΔClpP [2]: >20 µM
- MIC [3]: 0.078 µM (≈ 0.0655 µg/mL)
- MIC [4]: 0.078 µM (≈ 0.0655 µg/mL)
- MIC [5]: 0.078 µM (≈ 0.0655 µg/mL)
- MIC [6]: 0.078 µM (≈ 0.0655 µg/mL)
- MIC [7]: 0.078 µM (≈ 0.0655 µg/mL)
- MIC [8]: 0.039 µM (≈ 0.0327 µg/mL)
- MIC [9]: 0.078 µM (≈ 0.0655 µg/mL)
- Human [10]: 97.9 ± 0.3%
- Mouse [11]: 98.8 ± 0.4%
- AUC(0-inf) [12]: 5040 ng·h/mL
- AUC(0-t) [12]: 5000 ng·h/mL
- C^0 [12]: 9127.72 ng/mL
- clearance [12]: 33.1 mL/min/kg
- half-life [12]: 1.35 h
- Vd ([12]; 10 mg/kg, Route i.v., read-out: Vss): 2.28 L/kg
